# Assay results from patent US20090062337A1, “Treatment of Microbial Infections” (WYSIS TECHNOLOGY FOUNDATION, INC., priority 2007, published 2009).
# System: Burkholderia cepacia
# Assay: MIC against Burkholderia cepacia
# Format: cell-based
# Settings: Table 2; comparison of compounds against Burkholderia cepacia
row,SMILES,MIC
1,Oc1ccc2ccccc2n1 [2-hydroxyquinolone],> 128 µg/mL
2,Nc1ccnc2ccccc12 [4-aminoquinoline],40 µg/mL
